From patent publication US10112937B2, “P2X7 modulators and methods of use” (Janssen Pharmaceutica NV, priority 2013, dated 2018)

Molecular target: human P2X7 (Homo sapiens (Human), UniProt Q99572)
Assay: P2X7 antagonism in human PBMCs (IL-1β release after LPS + Bz-ATP, ELISA)
Assay type: cell-based
Settings: for PBMC 10 μM (% control): test compound 10 μM
Protocol: P2X7 Antagonism in Human Peripheral Blood Mononuclear Cells (PBMCs) and Human Whole Blood.
Human blood was collected using a blood donor program. PBMCs were isolated from blood using a Ficoll density gradient technique. Briefly, blood was laid on Ficoll solution and centrifuged at RT for 20 minutes at 2000 rpm. The buffy layer (between red blood cells and plasma) was carefully collected by aspiration, washed with PBS and centrifuged again at 1500 rpm for 15 minutes. The resulting cell pellet was washed and plated on 96 well-plates for experiments. For the Human Whole Blood experiments, 150 μl of human blood was platted on 96 well-plates. Lipopolysaccharide (LPS) (30 ng/ml) was added to each well and incubated for 1 hour. Test compounds were then added and incubated for 30 minutes. The P2X7 agonist, 2′(3′)-O-(4-benzoylbenzoyl) adenosine 5′ triphosphate (Bz-ATP) was then added at a final concentration of 0.5 mM (PBMC) or 1 mM (blood). Cells were incubated for an additional 1.5 hours. At that point, supernatant was collected and stored for IL-1β assay using manufacturer's protocol for enzyme-linked immunosorbent assay (ELISA). Data was expressed as percent control, where control is defined as the difference in IL-1β release in LPS+Bz-ATP samples and LPS only samples. Data was plotted as response (% control) versus concentration to generate IC50 values. […] Data are analyzed and graphed on Graphpad Prism 5. For analysis, each concentration point is averaged from triplicate values and the averaged values are plotted on Graphpad Prism.

human P2X7, sequence (Q99572 whole entry): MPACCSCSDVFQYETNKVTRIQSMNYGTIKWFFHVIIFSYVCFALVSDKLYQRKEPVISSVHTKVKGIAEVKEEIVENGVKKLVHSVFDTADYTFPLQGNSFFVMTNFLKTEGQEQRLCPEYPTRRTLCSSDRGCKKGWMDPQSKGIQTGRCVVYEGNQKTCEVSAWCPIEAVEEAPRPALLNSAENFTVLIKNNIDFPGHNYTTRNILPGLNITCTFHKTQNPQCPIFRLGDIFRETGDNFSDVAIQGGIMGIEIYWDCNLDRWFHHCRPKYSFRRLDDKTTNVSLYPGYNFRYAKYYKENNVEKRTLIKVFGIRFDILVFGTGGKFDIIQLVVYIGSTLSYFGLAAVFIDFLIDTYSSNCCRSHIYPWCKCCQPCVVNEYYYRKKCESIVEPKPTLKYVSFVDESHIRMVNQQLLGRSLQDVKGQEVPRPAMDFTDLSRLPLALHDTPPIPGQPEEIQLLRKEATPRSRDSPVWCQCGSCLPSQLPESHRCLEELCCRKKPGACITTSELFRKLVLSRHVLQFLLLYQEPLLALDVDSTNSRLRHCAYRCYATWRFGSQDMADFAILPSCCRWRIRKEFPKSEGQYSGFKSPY

SMILES | PBMC 10 μM (% control) (human PBMCs) | PBMC 1 μM (% control) (human PBMCs, test compound 1 μM) | PBMC 10 μM (% control) (LPS 30 ng/ml + 0.5 mM Bz-ATP)
CC1Cc2c(nnn2-c2ccccn2)CN1C(=O)c1ccc(F)c(Cl)c1Cl (centres unmarked) [Example 121, 5-[(2,3-Dichloro-4-fluorophenyl)carbonyl]-6-methyl-1-pyridin-2-yl-4,5,6,7-tetrahydro-1H-[1,2,3]triazolo[4,5-c]pyridine] | −0.2 | – | –
CC1c2nn(COCC[Si](C)(C)C)c(-c3ncc(F)cn3)c2CCN1C(=O)c1cccc(C(F)(F)F)c1Cl (centres unmarked) [Example 303, (2-chloro-3-(trifluoromethyl)phenyl)(3-(5-fluoropyrimidin-2-yl)-7-methyl-2-((2-(trimethylsilyl)ethoxy)methyl)-4,5-dihydro-2H-pyrazolo[3,4-c]pyridin-6(7H)-yl)methanone] | −1.6 | – | –
C[C@H]1Cc2c(nnn2-c2ncc(F)cn2)CN1C(=O)c1ccc(F)c(Cl)c1Cl (single isomer, unassigned) [Example 215, (6S*)-5-[(2,3-Dichloro-4-fluorophenyl)carbonyl]-1-(5-fluoropyrimidin-2-yl)-6-methyl-4,5,6,7-tetrahydro-1H-[1,2,3]triazolo[4,5-c]pyridine] | 2.7 | – | –
Cc1ccnc(-n2nnc3c2CCN(C(=O)c2cccc(C(F)(F)F)c2Cl)[C@H]3C)c1 (single isomer, unassigned) [Example 186, (S*)-(2-chloro-3-(trifluoromethyl)phenyl)(4-methyl-1-(4-methylpyridin-2-yl)-6,7-dihydro-1H-[1,2,3]triazolo[4,5-c]pyridin-5(4H)-yl)methanone] | −0.5 | – | −0.5

The next lines start with the values.

PBMC 10 μM (% control) (human PBMCs) | PBMC 1 μM (% control) (human PBMCs, test compound 1 μM) | PBMC 10 μM (% control) (LPS 30 ng/ml + 0.5 mM Bz-ATP) | SMILES
3.3 | – | – | C[C@H]1c2nnn(-c3ncccn3)c2CCN1C(=O)c1cccc(C(F)(F)F)c1Cl (single isomer, unassigned) [Example 87, (4S*)-5-{[2-Chloro-3-(trifluoromethyl)phenyl]carbonyl}-4-methyl-1-pyrimidin-2-yl-4,5,6,7-tetrahydro-1H-[1,2,3]triazolo[4,5-c]pyridine]
7.5 | – | – | C[C@H]1Cc2c(nnn2-c2ncc(F)cn2)CN1C(=O)c1cc(C(F)(F)F)ccc1F (single isomer, unassigned) [Example 232, (S*)-(2-fluoro-5-(trifluoromethyl)phenyl)(1-(5-fluoropyrimidin-2-yl)-6-methyl-6,7-dihydro-1H-[1,2,3]triazolo[4,5-c]pyridin-5(4H)-yl)methanone]
– | 5.2 | – | O=C(c1cccc(Cl)c1Cl)N1CCc2c(nnn2-c2ccccc2)C1 [Example 62, 5-[(2,3-Dichlorophenyl)carbonyl]-1-phenyl-4,5,6,7-tetrahydro-1H-[1,2,3]triazolo[4,5-c]pyridine]
108.2 | – | – | Cc1cc(-n2nnc3c2CCN(C(=O)c2ccc(Cl)c(C(F)(F)F)c2)[C@@H]3C)ncc1F (single isomer, unassigned) [Example 365, (R*)-(4-chloro-3-(trifluoromethyl)phenyl)(1-(5-fluoro-4-methylpyridin-2-yl)-4-methyl-6,7-dihydro-1H-[1,2,3]triazolo[4,5-c]pyridin-5(4H)-yl)methanone]
2.2 | – | – | C[C@H]1Cc2c(nnn2-c2ncc(F)cn2)CN1C(=O)c1cc(F)cc(C(F)(F)F)c1 [Example 307, (S)-(3-fluoro-5-(trifluoromethyl)phenyl)(1-(5-fluoropyrimidin-2-yl)-6-methyl-6,7-dihydro-1H-[1,2,3]triazolo[4,5-c]pyridin-5(4H)-yl)methanone]
1.0 | – | – | CC1Cc2c(nnn2-c2ccc(F)cc2)C(C)N1C(=O)c1cccc(C(F)(F)F)c1Cl (centres unmarked) [Example 243, (2-Chloro-3-(trifluoromethyl)phenyl)(1-(4-fluorophenyl)-4,6-dimethyl-6,7-dihydro-1H-[1,2,3]triazolo[4,5-c]pyridin-5(4H)-yl)methanone]
